Laboratory results from patent US6465478B1 (dated 2002).
Counter-ions that a name gives are not always drawn.

SMILES | melting point [°C]
CC1(N2CCC3(CC2)C(=O)N(CCCN)CN3c2ccccc2)CCCCCC1 (as salt: HCl) | 216 to 220
CC1(N2CCC3(CC2)C(=O)N(CCN2CCCCC2)CN3c2ccccc2)CCCCCC1 (as salt: HCl) | 50 to 53
NCCCN1CN(c2ccccc2)C2(CCN(C3(c4ccccc4)CCCCCC3)CC2)C1=O (as salt: HCl) | 150 to 154
O=C1N(CCN2CCCCC2)CN(c2ccccc2)C12CCN(C1(c3ccccc3)CCCCCC1)CC2 (as salt: HCl) | 174 to 178
CC1(N2CCC3(CC2)C(=O)NCN3c2ccccc2)CCC=CCC1 (as salt: hydrochloride) | 251 to 254
